# Data from patent EP0762895B1, “SYNTHETIC VACCINE FOR PROTECTION AGAINST HUMAN IMMUNODEFICIENCY VIRUS INFECTION” (DUKE UNIVERSITY, priority 1994, dated 1995).
# Where no end group is shown, it is not given here.
# Test system: Normal Human Peripheral Blood Lymphocytes
# Settings: not given
row,Substance,Inhibition of normal T cell response to tetanus toxoid
1,"CTRPNNNTRKSIRIQRGPG [SP-10, CTRPNNNTRKSIRIQRGPG]",no inhibition of normal T cell response to tetanus toxoid was observed

# Test system: T cells
# Settings: T helper epitopes of Clerici et al 1989; share of population studied; cited from earlier work
row,Substance,% Responding
1,KQIINMWQEVGKAMYA [T1],77%
2,HEDIISLWNQSLK [T2],54%
3,"TH4: T helper epitope, amino acids 834-848 of gp41 (QGACRAIRHIPRRIR; Transmembrane protein gp41; UniProt P04578 834-848, looked up, fragment)",75%

# Same assay, conditions: T helper epitopes of Schrier et al 1989; share of population studied; cited from earlier work
row,Substance,% Responding
1,"gp120-5: T helper epitope, amino acids 368-377 of gp120 (DPEIVTHSFN; Envelope glycoprotein gp120; UniProt P04578 368-377, looked up, fragment)",21%
2,"gp41-7: T helper epitope, amino acids 584-609 of gp41 (ERYLKDQQLLGIWGCSGKLICTTAVP; Transmembrane protein gp41; UniProt P04578 584-609, looked up, fragment)",24%
3,"pol-3: T helper epitope, amino acids 942-954 of pol",48%
4,"pol-1: T helper epitope, amino acids 899-913 of pol",28%
5,"gp41-1: T helper epitope, amino acids 603-614 of gp41 (ICTTAVPWNASW; Transmembrane protein gp41; UniProt P04578 603-614, looked up, fragment)",41%
6,"pol-4: T helper epitope, amino acids 720-730 of pol (PSINNETPGIR; UniProt P04585 720-730, looked up, fragment)",35%
7,"gp120-2: T helper epitope, amino acids 115-126 of gp120 (SLKPCVKLTPLC; Envelope glycoprotein gp120; UniProt P04578 115-126, looked up, fragment)",38%
8,"gp41-5: T helper epitope, amino acids 737-749 of gp41 (GGERDRDRSIRLV; Transmembrane protein gp41; UniProt P04578 737-749, looked up, fragment)",21%
9,"gp41-2: T helper epitope, amino acids 609-620 of gp41 (PWNASWSNKSLE; Transmembrane protein gp41; UniProt P04578 609-620, looked up, fragment)",42%
10,"pol-2: T helper epitope, amino acids 923-937 of pol",38%
11,"gp41-3: T helper epitope, amino acids 655-667 of gp41 (KNEQELLELDKWA; Transmembrane protein gp41; UniProt P04578 655-667, looked up, fragment)",38%
